In patent publication US9381171B2 (priority 2013, dated 2016):

Assays:
[1] = test system: SOL muscle of the hind-limb of a mouse; details: mouse fed 4 mg/kg dexamethasone and 2 mg/kg dapsone for 3 weeks, 0.2 Hz (100 V)
Protocol: (§1) The SOL muscle was separated from a female mouse (which weighs about 20 g) aged about 3 months. The mouse was anesthetized by sodium pentobarbital injection (100 mg/kg body weight). The SOL muscle, which is a type I muscle, was separated by paying attention to each hind-limb of the mouse while maintaining ligaments from both hind-limbs without damaging the SOL muscle. Then, the separated SOL muscle was put in an oxygen-treated Ringer's solution (118 mM NaCl, 4.75 mM KCl, 2.5 mM CaCl2, 1.18 mM MgSO4, 1.18 mM NaH2PO4, 24.8 mM NaHCO3, 10 mM glucose, and 0.02 g/l tubocurarine chloride, 25° C., pH 7.4) (Sigma Aldrich), set, and stabilized. One side of the separated SOL muscle was filled with the Ringer's solution to fix the separated SOL muscle on a tissue bath with smooth oxygen supply while the other side of the separated SOL muscle was fixed on a FT03 isometric force transducer (Grass Instruments, West Warwick, USA). Here, the muscle twitching was adjusted according to the intensity of the electric field stimulation. […] Here, the muscle contractility value (mN) represents the muscle twitch contraction.

[2] = test system: phosphorylated FOXO1-p (Ser256); test: Factors of atrophy: western blot of FOXO1-p in C2C12 cells (FIG. 4); type: cell-based, mouse; details: C2C12, 0.1, 1, 20 μM dapsone 12 hours, then 1 μM dexamethasone 2 hours
Protocol: (§2) A C2C12 cell line (mouse gastrocnemius muscle, ATCC®CRL-1772™) was inoculated in a 10% FBS/DMEM culture medium in a 60 mm culture dish. When the cells were grown to about 70% confluency in a 5% CO2 incubator at a temperature of 37° C., the culture medium was changed to a 2% FBS/DMEM culture medium to allow complete differentiation after incubation for 4 days. The C2C12 cell line is a mouse myoblast cell line obtained through continuous culture of myoblasts that are cultured from the gastrocnemius muscle of C3H mice. […] Here, 1 μM of dexamethasone was added thereto and cultured together for 2 hours as described above.
(§3) After the medium was removed from the culture and the cells were collected therefrom, 500 μl of an RIPA lysis buffer (including 20 mM Tris-HCl (pH 7.5), 150 mM NaCl, 1 mM Na2EDTA, 1 mM EGTA, 1% NP-40, 1% sodium deoxycholate, 2.5 mM sodium pyrophosphate, 1 mM beta-glycerophosphate, 1 mM Na3VO4, and 1 μg/ml leupeptin) was added for lysing the cells. […]

[3] = test system: phosphorylated Akt-p (Ser473); test: Factors of atrophy: western blot of Akt-p in C2C12 cells (FIG. 4); type: cell-based, mouse; details: C2C12, 0.1, 1, 20 μM dapsone 12 hours, then 1 μM dexamethasone 2 hours; concentration-dependent
Protocol: as §2, §3

MURF-1 mRNA = test: MuRF-1 mRNA level by real time PCR in C2C12 cells (FIG. 5A); type: cell-based, mouse; details: C2C12, 20 μM dapsone and 1 μM dexamethasone, 24 hours; normalized to GAPDH mRNA
Protocol: (§4) Here, 1 μM of dexamethasone was added thereto and incubated for 24 hours. Then, the amounts of the expressed mRNA of the Atrogin-1 and MuRF-1 among the C2C12 cells were confirmed. Here, the complete RNA was separated by using a Trizol reagent (Invitrogen). The analysis of the mRNAs of Atrogin-1 and MuRF-1 was performed by using a real time […] instrument, BioRad), which is a device for measuring reverse transcription and SYBR Green. The resulting amounts then normalize to the amount of GAPDH mRNA. The amplification of Atrogin-1, MuRF-1, and GAPDH mRNAs was performed by using an oligonucleotide primer set of SEQ ID NOS: 1 and 2, an oligonucleotide primer set of SEQ ID NOS: 3 and 4, and an oligonucleotide primer set of SEQ ID NOS: 5 and 6.

Atrogin-1 = Atrogin-1 protein level by western blot in C2C12 cells (FIG. 5B); type: cell-based, mouse; details: C2C12, 0.1, 1 or 20 μM dapsone and 1 μM dexamethasone; concentration-dependent
Protocol: as §2, with “for 24” for “for 2”
(§5) After the medium was removed from the culture and the cells were collected therefrom, 500 μl of an RIPA lysis buffer was added for lysing the cells. Then, the resulting lysates were subjected to electrophoresis and western blot analysis with respect to Atrogin-1, MuRF-1, and α-tubulin. A primary antibody used in the western blot analysis was a rabbit anti-Atrogin-1 antibody (ECM Bioscience), a MuRF-1 antibody (GeneTax), and α-tubulin (Cell Signaling Technology, USA) antibody, and a secondary antibody used in the western blot analysis was an HRP-conjugated anti-rabbit antibody (Jackson ImmunoResearch).

MURF-1 = test: MuRF-1 protein level by western blot in C2C12 cells (FIG. 5B); type: cell-based, mouse; details: C2C12, 0.1, 1 or 20 μM dapsone and 1 μM dexamethasone; concentration-dependent
Protocol: as §2, with “for 24” for “for 2”
as §5

Atrogin-1 mRNA = Atrogin-1 mRNA level by real time PCR in C2C12 cells (FIG. 5A); type: cell-based, mouse; details: C2C12, 20 μM dapsone and 1 μM dexamethasone, 24 hours; normalized to GAPDH mRNA
Protocol: as §4

[4] = test system: SOL muscle of the hind-limb of a mouse; test: Muscle fatigability of SOL muscle separated from fed mice (FIG. 7); type: in vivo; details: 150 Hz, 100 V, stimulation every 2 seconds for 30 seconds
Protocol: as §1

SMILES | increase of twitch contractility compared with mouse fed on dexamethasone [1] | amount of the FOXO1-p protein [2] | amount of the Akt-p [3] | mRNA level of MURF-1 (MURF-1 mRNA) | protein level of Atrogin-1 (Atrogin-1) | protein level of MURF-1 (MURF-1) | mRNA level of Atrogin-1 (Atrogin-1 mRNA) | decrease of muscle fatigability compared with intake of only dexamethasone ([4]; intake of both dexamethasone and dapsone) | degree of the muscle fatigability ([4]; upon intake of dexamethasone)
Nc1ccc(S(=O)(=O)c2ccc(N)cc2)cc1 [dapsone, 4-[(4-aminobenzene)sulfonyl]aniline] | 43.7% | decreased | increased | significantly decreased | significantly decreased | significantly decreased | significantly decreased | 20.3% | 
C[C@@H]1C[C@H]2[C@@H]3CCC4=CC(=O)C=C[C@]4(C)[C@@]3(F)[C@@H](O)C[C@]2(C)[C@@]1(O)C(=O)CO [dexamethasone] |  |  |  |  |  |  |  |  | increased
